# Measured values: US11911480B2, “Self-emulsifying composition of ω-3 fatty acid” (priority 2015, dated 2024)
# Where two headings read alike, the source gives them in different places.
# Legend:
# [1] = human, in vivo, po, 1800 mg
# Procedure: The capsule having the self-emulsifying composition of the present invention containing 80% by weight of EPA-E as its content was orally administered to human (12 cases, healthy adult males of 20 to 40 years old with a body weight of 55.0 to 77.0 kg and a BMI of 18.5 or more but less than 25.0) under fasting conditions to evaluate the change of blood EPA concentration. The self-emulsifying composition in an amount corresponding to 1800 mg of EPA-E was orally administered in single dose to each human who had been fasted since 10 hours or more before the administration by using 200 mL of water in the morning under fasting. The blood was collected 0.5, 1, 1.5, 2, 3, 4, 5, 6, 7, 8, 9, 10, 12, 15, 18, 24, 48 and 72 hours after the administration. Immediately after the collection, the blood was cooled on ice, and centrifuged at 2000×g at 4° C. for 10 minutes to separately collect the plasma. After having stored the resulting plasma at a temperature not higher than −20° C. in frozen state, concentration of the EPA in the plasma was measured by LC/MS/MS (method in which a sample is isolated by liquid chromatography, then subjected to mass spectrometry to conduct separation and measurement thereon). […]
# In the calculation of each parameter, correction was made by subtracting the blood EPA concentration before the administration from the measured blood concentration.
# [2] = human, in vivo, po, 3600 mg
# Procedure: The capsule having the self-emulsifying composition of the present invention containing 80% by weight of EPA-E as its content was orally administered to human (12 cases, healthy adult males of 20 to 40 years old with a body weight of 55.0 to 77.0 kg and a BMI of 18.5 or more but less than 25.0) under fasting conditions to evaluate the change of blood EPA concentration. The self-emulsifying composition in an amount corresponding to 1800 mg of EPA-E was orally administered in single dose to each human who had been fasted since 10 hours or more before the administration by using 200 mL of water in the morning under fasting. The blood was collected 0.5, 1, 1.5, 2, 3, 4, 5, 6, 7, 8, 9, 10, 12, 15, 18, 24, 48 and 72 hours after the administration. […] After having stored the resulting plasma at a temperature not higher than −20° C. in frozen state, concentration of the EPA in the plasma was measured by LC/MS/MS (method in which a sample is isolated by liquid chromatography, then subjected to mass spectrometry to conduct separation and measurement thereon). […]
# This test was conducted on 6 humans. […] In the calculation of each parameter, correction was made by subtracting the blood EPA concentration before the administration from the measured blood concentration.
smiles,measurement,setting,value
"CC/C=C\C/C=C\C/C=C\C/C=C\C/C=C\CCCC(=O)OCC [EPA-E stock solution, Ethyl eicosapentaenoate]",Cmax,[1],4.6 µg/mL
same,Cmax,[2],3.6 µg/mL
